Biological target: IDH1 R132H (Homo sapiens, UniProt O75874, R132H)
Experiment: Assay for IDH1 R132H inhibitors (NADPH/aKG, resazurin detection)
Type: biochemical
Details: Table 3; enzyme assay, 50 minutes at room temperature; read-out: IC50 (IDH1 R132H Inhibition)
Description: Assays were conducted in a volume of 76 μl assay buffer (150 mM NaCl, 10 mM MgCl2, 20 mM Tris pH 7.5, 0.03% bovine serum albumin) as follows in a standard 384-well plate: To 25 ul of substrate mix (8 uM NADPH, 2 mM aKG), 1 μl of test compound was added in DMSO. The plate was centrifuged briefly, and then 25 μl of enzyme mix was added (0.2 μg/ml IDH1 R132H) followed by a brief centrifugation and shake at 100 RPM. The reaction was incubated for 50 minutes at room temperature, then 25 μl of detection mix (30 μM resazurin, […]) was added and the mixture further incubated for 5 minutes at room temperature. The conversion of resazurin to resorufin was detected by fluorescent spectroscopy at Ex544 Em590 c/o 590.

IDH1 R132H, sequence (O75874 whole entry R132H): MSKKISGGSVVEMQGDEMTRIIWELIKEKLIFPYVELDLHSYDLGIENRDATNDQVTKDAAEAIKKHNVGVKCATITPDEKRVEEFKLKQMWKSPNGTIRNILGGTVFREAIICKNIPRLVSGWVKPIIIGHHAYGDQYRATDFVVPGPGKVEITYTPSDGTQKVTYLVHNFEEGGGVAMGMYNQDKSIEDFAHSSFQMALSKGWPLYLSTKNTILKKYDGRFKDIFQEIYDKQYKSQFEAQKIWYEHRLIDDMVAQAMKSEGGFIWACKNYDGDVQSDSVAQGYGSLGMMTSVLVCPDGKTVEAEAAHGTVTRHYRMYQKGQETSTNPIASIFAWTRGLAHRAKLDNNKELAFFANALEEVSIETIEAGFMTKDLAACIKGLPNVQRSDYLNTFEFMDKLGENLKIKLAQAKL

Question: How did the IC50 turn out when `CC(C)c1cc(-c2cccc(O)c2)c(C#N)c(N2CCN(C(=O)c3ccoc3)[C@H](C)C2)n1` [Compound 152, (R)-2-(4-(furan-3-carbonyl)-3-methylpiperazin-1-yl)-4-(3-hydroxyphenyl)-6-isopropylnicotinonitrile] was run?
Answer: 1 to 5 µM

Question: For `CC(C)c1nc(N2CCN(C(=O)c3ccoc3)[C@H](C)C2)c(C#N)cc1-c1ccc(C(F)(F)F)cc1` [Compound 187, (R)-2-(4-(furan-3-carbonyl)-3-methylpiperazin-1-yl)-6-isopropyl-5-(4-(trifluoromethyl)phenyl)nicotinonitrile], which IC50 is on record?
Answer: ≤ 1 µM

Question: For `COCCC(=O)N1CCN(c2nc(C3CC3)c(-c3ccsc3)c(C)c2C#N)C[C@H]1C` [Compound 262, (R)-6-cyclopropyl-2-(4-(3-methoxypropanoyl)-3-methylpiperazin-1-yl)-4-methyl-5-(thiophen-3-yl)nicotinonitrile], which IC50 is on record?
Answer: ≤ 1 µM

Question: For `CC(C)c1cc(-c2ccccc2)c(C#N)c(N2CCN(C(=O)c3ccoc3)CC2c2ccccc2)n1` (stereo not shown) [Compound 160, 2-(4-(furan-3-carbonyl)-2-phenylpiperazin-1-yl)-6-isopropyl-4-phenylnicotinonitrile], which IC50 is on record?
Answer: 5 to 15 µM

Question: Which IC50 does the source give for `COCCC(=O)N1CCN(c2nc(C(C)C)c(-c3ccc(C(F)(F)F)cc3)cc2C#N)C[C@H]1C(C)C` [Compound 197, (R)-6-isopropyl-2-(3-isopropyl-4-(3-methoxypropanoyl)piperazin-1-yl)-5-(4-(trifluoromethyl)phenyl)nicotinonitrile] here?
Answer: 1 to 5 µM

Question: Which IC50 does the source give for `COCCC(=O)N1CCN(c2nc(C(C)C)c(-c3ccccc3OC)cc2C#N)C[C@H]1C` [Compound 183, (R)-6-isopropyl-5-(2-methoxyphenyl)-2-(4-(3-methoxypropanoyl)-3-methylpiperazin-1-yl)nicotinonitrile] here?
Answer: 1 to 5 µM

Question: With `COCCC(=O)N1CCN(c2nc(C3CC3)c(-c3cccc(OC)c3)c(C)c2C#N)C[C@H]1C` [Compound 251, (R)-6-cyclopropyl-5-(3-methoxyphenyl)-2-(4-(3-methoxypropanoyl)-3-methylpiperazin-1-yl)-4-methylnicotinonitrile] as the molecule, how does the IC50 read?
Answer: ≤ 1 µM

Question: How did the IC50 turn out when `CC(=O)Oc1ccccc1-c1cc(C(C)C)nc(N2CCN(C(=O)c3ccoc3)[C@H](C)C2)c1C#N` [Compound 162, (R)-2-(3-cyano-2-(4-(furan-3-carbonyl)-3-methylpiperazin-1-yl)-6-isopropylpyridin-4-yl)phenylacetate] was run?
Answer: 1 to 5 µM

Question: With `CC(C)c1nc(N2CCN(C(=O)c3c[nH]c4ccccc34)CC2c2ccccc2)c(C#N)cc1-c1ccccc1` (stereo not shown) [Compound 168, 2-(4-(1H-indole-3-carbonyl)-2-phenylpiperazin-1-yl)-6-isopropyl-5-phenylnicotinonitrile] as the molecule, how does the IC50 read?
Answer: 1 to 5 µM

Question: How did the IC50 turn out when `COCCC(=O)N1CCN(c2nc(C3CC3)c(-c3ccc(OC(F)(F)F)cc3)c(C)c2C#N)C[C@H]1C` [Compound 255, (R)-6-cyclopropyl-2-(4-(3-methoxypropanoyl)-3-methylpiperazin-1-yl)-4-methyl-5-(4-(trifluoromethoxy)-phenyl)nicotinonitrile] was run?
Answer: ≤ 1 µM

Question: With `CC(C)c1cc(-c2cccc(F)c2)c(C#N)c(N2CCN(C(=O)c3c[nH]c4ccccc34)CC2)n1` [Compound 116, 2-(4-(1H-indole-3-carbonyl)piperazin-1-yl)-4-(3-fluorophenyl)-6-isopropylnicotinonitrile] as the molecule, how does the IC50 read?
Answer: 5 to 15 µM

Question: With `CCOc1ccccc1-c1cc(C#N)c(N2CCN(C(=O)c3ccco3)C[C@@H]2C)nc1C(C)C` [Compound 184, (S)-5-(2-ethoxyphenyl)-2-(4-(furan-2-carbonyl)-2-methylpiperazin-1-yl)-6-isopropylnicotinonitrile] as the molecule, how does the IC50 read?
Answer: 1 to 5 µM

Question: `COCCC(=O)N1CCN(c2nc(C3CC3)c(Cc3ccccc3)c(C)c2C#N)C[C@H]1C` [Compound 245, (R)-5-benzyl-6-cyclopropyl-2-(4-(3-methoxypropanoyl)-3-methylpiperazin-1-yl)-4-methylnicotinonitrile] was tested. Which IC50 did it give?
Answer: 1 to 5 µM

Question: With `CC(C)c1nc(N2CCN(C(=O)c3ccco3)C(C)C2)c(C#N)cc1-c1ccccc1` (stereo not shown) [Compound 119, 2-(4-(furan-2-carbonyl)-3-methylpiperazin-1-yl)-6-isopropyl-5-phenylnicotinonitrile] as the molecule, how does the IC50 read?
Answer: 5 to 15 µM

Question: `CC(C)c1cc(-c2ccccc2O)c(C#N)c(N2CCN(C(=O)c3ccoc3)[C@H](C)C2)n1` [Compound 157, (R)-2-(4-(furan-3-carbonyl)-3-methylpiperazin-1-yl)-4-(2-hydroxyphenyl)-6-isopropylnicotinonitrile] was tested. Which IC50 did it give?
Answer: 5 to 15 µM

Same assay, conditions: enzyme assay of Example 12; read-out: IDH1R132H IC50

Question: With `N#Cc1cc(-c2cccnc2)c(C2CC2)nc1N1CCN(C(=O)CC(F)(F)F)[C@H](C2CC2)C1` [Compound 524, (R)-2-cyclopropyl-6-(3-cyclopropyl-4-(3,3,3-trifluoropropanoyl)piperazin-1-yl)-[3,3′-bipyridine]-5-carbonitrile] as the molecule, how does the IC50 read?
Answer: < 0.5 µM

Question: `COCCC(=O)N1CCN(c2nc(C3CC3)c(N(C)c3ccnc(Cl)c3)cc2C#N)C[C@H]1C` [Compound 699, (R)-5-((2-chloropyridin-4-yl)(methyl)amino)-6-cyclopropyl-2-(4-(3-methoxypropanoyl)-3-methylpiperazin-1-yl)nicotinonitrile] was tested. Which IC50 did it give?
Answer: < 0.5 µM

Question: Which IC50 does the source give for `C[C@@H]1CN(c2nc(C3CC3)c(-c3ccc4ncoc4c3)cc2C#N)CCN1C(=O)C1CC1` [Compound 467, (R)-5-(benzo[d]oxazol-6-yl)-2-(4-(cyclopropanecarbonyl)-3-methylpiperazin-1-yl)-6-cyclopropylnicotinonitrile] here?
Answer: 0.5 to 1 µM

Question: With `C=Cc1cnc2c(-c3cc(C#N)c(N4CCN(C(=O)/C=C/CCO)[C@H](C(C)C)C4)nc3C3CC3)cccc2n1` [Compound 790, (R)-6-cyclopropyl-2-(4-(5-hydroxypent-2-enoyl)-3-isopropylpiperazin-1-yl)-5-(2-vinylquinoxalin-5-yl)nicotinonitrile] as the molecule, how does the IC50 read?
Answer: < 0.5 µM

Question: Which IC50 does the source give for `CC1CN(c2nc(C3CC3)c(-c3cccc4cnccc34)cc2C#N)CC(F)CN1C(=O)C1CC1` (stereo not shown) [Compound 484, 2-(4-(cyclopropanecarbonyl)-6-fluoro-3-methyl-1,4-diazepan-1-yl)-6-cyclopropyl-5-(isoquinolin-5-yl)nicotinonitrile] here?
Answer: 0.5 to 1 µM

Question: With `N#CCn1cc(-c2cc(C#N)c(N3CCN(C(=O)C4CC4)[C@H](C4CC4)C3)nc2C2CC2)cn1` [Compound 486, (R)-5-(1-(cyanomethyl)-1H-pyrazol-4-yl)-2-(4-(cyclopropanecarbonyl)-3-cyclopropylpiperazin-1-yl)-6-cyclopropylnicotinonitrile] as the molecule, how does the IC50 read?
Answer: 0.5 to 1 µM

Question: Which IC50 does the source give for `CN(C)c1nccc(-c2cc(C#N)c(N3CCN(C(=O)CC(F)(F)F)[C@H](C4CC4)C3)nc2C2CC2)n1` [Compound 521, (R)-6-cyclopropyl-2-(3-cyclopropyl-4-(3,3,3-trifluoropropanoyl)piperazin-1-yl)-5-(2-(dimethylamino)pyrimidin-4-yl)nicotinonitrile] here?
Answer: < 0.5 µM

Question: With `C=Cc1ccnc(Nc2cc(C#N)c(N3CCN(C(=O)/C=C/CCO)[C@H](C(C)C)C3)nc2C2CC2)c1` [Compound 791, (R,E)-6-cyclopropyl-2-(4-(5-hydroxypent-2-enoyl)-3-isopropylpiperazin-1-yl)-5-((4-vinylpyridin-2-yl)amino)nicotinonitrile] as the molecule, how does the IC50 read?
Answer: < 0.5 µM

Question: `COCCC(=O)N1CCN(c2nc(C3CC3)c(-c3cccnc3F)c(C)c2C#N)C[C@H]1C` [Compound 369, (R)-2-cyclopropyl-2′-fluoro-6-[4-(3-methoxy-propionyl)-3-methyl-piperazin-1-yl]-4-methyl-[3,3′]bipyridinyl-5-carbonitrile] was tested. Which IC50 did it give?
Answer: 0.5 to 1 µM

Question: `COCCC(=O)N1CCN(c2nc(C3CC3)c(-c3ccccc3CO)cc2C#N)C[C@H]1C` [Compound 344, (R)-6-cyclopropyl-5-(2-hydroxymethyl-phenyl)-2-[4-(3-methoxy-propionyl)-3-methyl-piperazin-1-yl]-nicotinonitrile] was tested. Which IC50 did it give?
Answer: 0.5 to 1 µM

Question: For `COCCC(=O)N1CCN(c2nc(C3CC3)c(-c3ccnn3C)c(C)c2C#N)C[C@H]1C` [Compound 349, (R)-6-cyclopropyl-2-[4-(3-methoxy-propionyl)-3-methyl-piperazin-1-yl]-4-methyl-5-(2-methyl-2H-pyrazol-3-yl)-nicotinonitrile], which IC50 is on record?
Answer: 0.5 to 1 µM

Question: Which IC50 does the source give for `N#Cc1cc(-c2cnnc(O)c2)c(C2CC2)nc1N1CCN(C(=O)CCO)[C@H](C2CC2)C1` [Compound 671, (R)-6-cyclopropyl-2-(3-cyclopropyl-4-(3-hydroxypropanoyl)piperazin-1-yl)-5-(6-hydroxypyridazin-4-yl)nicotinonitrile] here?
Answer: < 0.5 µM

Question: Which IC50 does the source give for `COCCC(=O)N1CCN(c2nc(C3CC3)c(N(c3ccnc(C#N)c3)c3ccnc(C#N)c3)cc2C#N)C[C@H]1C` [Compound 659, (R)-4,4′-(5-cyano-2-cyclopropyl-6-(4-(3-methoxypropanoyl)-3-methylpiperazin-1-yl)pyridin-3-ylazanediyl)dipicolinonitrile] here?
Answer: < 0.5 µM

Question: How did the IC50 turn out when `C=CC(=O)N1CC=C(c2cc(C#N)c(N3CCN(C(=O)C4CC4)[C@H](C)C3)nc2C2CC2)CC1` [Compound 630, (R)-5-(1-acryloyl-1,2,3,6-tetrahydropyridin-4-yl)-2-(4-(cyclopropanecarbonyl)-3-methylpiperazin-1-yl)-6-cyclopropylnicotinonitrile] was run?
Answer: 0.5 to 1 µM

Question: How did the IC50 turn out when `C=Cc1cc(-c2cc(C#N)c(N3CCN(C(=O)C[C@H]4CCC(=O)O4)[C@H](C4CC4)C3)nc2C2CC2)ccn1` [Compound 821] was run?
Answer: < 0.5 µM

Question: `CSCn1cc(-c2cc(C#N)c(N3CCN(C(=O)C4CC4)[C@H](C4CC4)C3)nc2C2CC2)cn1` [Compound 510, (R)-2-(4-(cyclopropanecarbonyl)-3-cyclopropylpiperazin-1-yl)-6-cyclopropyl-5-(1-((methylthio)methyl)-1H-pyrazol-4-yl)nicotinonitrile] was tested. Which IC50 did it give?
Answer: 0.5 to 1 µM

— patent publication US9856279B2 (AGIOS PHARMACEUTICALS, INC, priority 2011, dated 2018)
